Laboratory results: article PMC11490872, “Drug-resistant menin variants retain high binding affinity and interactions with MLL1” (The Journal of Biological Chemistry, 2024)
Numbering of substitutions follows the chain as printed. Values belong to the molecule of their own block, whether it stands above or below them. Where no end group is shown, it is not given here.

Tests used:
[1] = target: T1, menin^G331R (Homo sapiens, UniProt O00255, G326R); assay: FP binding of fluorescein-labeled MLL1 peptides to menin^G331R; settings: versus menin^WT, Fig. 1B (FP and ITC)
T1 construct: The gene encoding full-length human menin was cloned into a pET32a expression vector; thioredoxin-His6 (cleaved yes); made in house; host or cells: E. coli BL21(DE3)
T1 sequence (O00255 1-610 G326R): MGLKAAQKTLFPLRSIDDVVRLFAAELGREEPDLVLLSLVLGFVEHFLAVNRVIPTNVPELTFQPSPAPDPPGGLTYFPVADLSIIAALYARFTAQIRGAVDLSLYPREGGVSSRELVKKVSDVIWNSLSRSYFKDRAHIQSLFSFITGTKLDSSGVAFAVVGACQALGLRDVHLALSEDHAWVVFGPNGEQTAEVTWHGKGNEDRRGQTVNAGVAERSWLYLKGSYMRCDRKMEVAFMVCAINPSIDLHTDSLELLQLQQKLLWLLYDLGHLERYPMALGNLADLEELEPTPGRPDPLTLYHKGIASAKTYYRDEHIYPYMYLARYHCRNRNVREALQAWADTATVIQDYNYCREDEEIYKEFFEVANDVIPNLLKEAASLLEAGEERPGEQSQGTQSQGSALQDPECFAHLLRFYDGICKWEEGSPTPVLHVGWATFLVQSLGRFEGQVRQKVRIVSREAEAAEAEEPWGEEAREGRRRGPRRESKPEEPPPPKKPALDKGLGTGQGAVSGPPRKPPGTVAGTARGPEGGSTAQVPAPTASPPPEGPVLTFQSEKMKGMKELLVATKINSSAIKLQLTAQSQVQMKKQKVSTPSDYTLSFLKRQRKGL
Experimental: (§1) FP binding experiments utilized MLL1-derived peptides, FLSN-MLL1^4-43 at 4 nM and FLSN-MLL1^4-15 at 10 nM, titrated against a range of menin concentrations in the FP buffer (50 mM Tris pH 7.5, 50 mM NaCl, 1 mM TCEP) to obtain Kd measurements. Protein-peptide complexes were incubated for 1 h before measuring the change in fluorescence polarization and anisotropy at 525 nm after excitations at 495 nm using the PHERAstar microplate reader (BMG) ([2]).
(§2) FP competition experiments used FLSN-MLL1^4-43 at 4 nM and menin at 4 nM against varying concentrations of unlabeled MLL1 peptides in FP buffer for IC50 determination. Protein-peptide complexes were incubated for 1 h before unlabeled peptide competitors were added to ensure complete binding. Unlabeled peptide competitors were incubated with the protein-peptide complexes for 3 h before measurement using the PHERAstar microplate reader ([25]). Experiments with Revumenib were run with the same steps and conditions but used 5% DMSO in the final solution. Kd and IC50 values were calculated using GraphPad Prism 10 by plotting mP values measured for each protein/MLL1 peptide or Revumenib as a function of protein/MLL1 peptide (or Revumenib) concentration ([25]). All FP binding and competition experiments were run in triplicate.

[2] = target: T2, menin^G331D (Homo sapiens, UniProt O00255, G326D); assay: FP binding of fluorescein-labeled MLL1 peptides to menin^G331D; settings: versus menin^WT, Fig. 1B (FP and ITC)
T2 construct: The gene encoding full-length human menin was cloned into a pET32a expression vector; thioredoxin-His6 (cleaved yes); made in house; host or cells: E. coli BL21(DE3)
T2 sequence (O00255 1-610 G326D): T1 sequence (O00255 1-610 G326R) with R326D
Experimental: as §1, §2

[3] = test system: wild-type, M327I, T349M, and G331R menin bound to FLSN-MLL1^4-43; assay: FP competition, stated over wild-type, M327I, T349M and G331R menin; assay type: binding, human; settings: versus MLL1^46
Experimental: as §2

[4] = target: MLL1 MBM1 6-13 (Homo sapiens) (UniProt Q03164); settings: cited from earlier work
[5] = target: MLL1 MBM2 24-40 (Homo sapiens) (UniProt Q03164); settings: cited from earlier work
[6] = test system: patients with MLL1-r and NPM1-mut acute leukemias; settings: cited from earlier work
[7] = target: menin; design: method as in PMID 20961854, PMID 22936661; settings: cited from earlier work
[8] = target: T3, menin^G331D-FLSN-MLL1^4-43 (Homo sapiens, UniProt O00255, G326D); assay: FP competition, displacement of FLSN-MLL1^4-43 from menin^G331D; assay type: binding; settings: even with increased incubation times, Fig. S6
T3 construct: The gene encoding full-length human menin was cloned into a pET32a expression vector; thioredoxin-His6 (cleaved yes); made in house; host or cells: E. coli BL21(DE3); probe peptide from GenScript
T3 sequence (O00255 1-610 G326D): T1 sequence (O00255 1-610 G326R) with R326D
Experimental: To better understand the mechanism of MLL1 binding with menin mutants, we performed FP competition experiments using FLSN-MLL1^4-43 as a fluorescent probe for competitive displacement by MLL1 peptides ([25]). First, we tested competition with MLL1^160 and found very similar IC50 values for wild-type menin and the three mutants M327I, T349M, and G331R, ranging between 4.1 and 8 nM (Fig. 3, A and B). […] We have hypothesized that the lack of competition with MLL1 for the menin^G331D mutant might result from a much slower dissociation rate of the menin^G331D–MLL1 complex, and to evaluate this we performed time-dependent competition experiments with MLL1^160 and MLL1^46. Standard conditions in the FP assay include 3 h incubations of the menin-FLSN-MLL1^4-43 complex with competitors.
as §2

[9] = Phase 1/2, AML patients with KMT2A (MLL1) rearrangements and NPM1 mutations

Chain of MLL1 MBM1 6-13 (Homo sapiens) (Q03164 whole entry, looked up, tested part not stated): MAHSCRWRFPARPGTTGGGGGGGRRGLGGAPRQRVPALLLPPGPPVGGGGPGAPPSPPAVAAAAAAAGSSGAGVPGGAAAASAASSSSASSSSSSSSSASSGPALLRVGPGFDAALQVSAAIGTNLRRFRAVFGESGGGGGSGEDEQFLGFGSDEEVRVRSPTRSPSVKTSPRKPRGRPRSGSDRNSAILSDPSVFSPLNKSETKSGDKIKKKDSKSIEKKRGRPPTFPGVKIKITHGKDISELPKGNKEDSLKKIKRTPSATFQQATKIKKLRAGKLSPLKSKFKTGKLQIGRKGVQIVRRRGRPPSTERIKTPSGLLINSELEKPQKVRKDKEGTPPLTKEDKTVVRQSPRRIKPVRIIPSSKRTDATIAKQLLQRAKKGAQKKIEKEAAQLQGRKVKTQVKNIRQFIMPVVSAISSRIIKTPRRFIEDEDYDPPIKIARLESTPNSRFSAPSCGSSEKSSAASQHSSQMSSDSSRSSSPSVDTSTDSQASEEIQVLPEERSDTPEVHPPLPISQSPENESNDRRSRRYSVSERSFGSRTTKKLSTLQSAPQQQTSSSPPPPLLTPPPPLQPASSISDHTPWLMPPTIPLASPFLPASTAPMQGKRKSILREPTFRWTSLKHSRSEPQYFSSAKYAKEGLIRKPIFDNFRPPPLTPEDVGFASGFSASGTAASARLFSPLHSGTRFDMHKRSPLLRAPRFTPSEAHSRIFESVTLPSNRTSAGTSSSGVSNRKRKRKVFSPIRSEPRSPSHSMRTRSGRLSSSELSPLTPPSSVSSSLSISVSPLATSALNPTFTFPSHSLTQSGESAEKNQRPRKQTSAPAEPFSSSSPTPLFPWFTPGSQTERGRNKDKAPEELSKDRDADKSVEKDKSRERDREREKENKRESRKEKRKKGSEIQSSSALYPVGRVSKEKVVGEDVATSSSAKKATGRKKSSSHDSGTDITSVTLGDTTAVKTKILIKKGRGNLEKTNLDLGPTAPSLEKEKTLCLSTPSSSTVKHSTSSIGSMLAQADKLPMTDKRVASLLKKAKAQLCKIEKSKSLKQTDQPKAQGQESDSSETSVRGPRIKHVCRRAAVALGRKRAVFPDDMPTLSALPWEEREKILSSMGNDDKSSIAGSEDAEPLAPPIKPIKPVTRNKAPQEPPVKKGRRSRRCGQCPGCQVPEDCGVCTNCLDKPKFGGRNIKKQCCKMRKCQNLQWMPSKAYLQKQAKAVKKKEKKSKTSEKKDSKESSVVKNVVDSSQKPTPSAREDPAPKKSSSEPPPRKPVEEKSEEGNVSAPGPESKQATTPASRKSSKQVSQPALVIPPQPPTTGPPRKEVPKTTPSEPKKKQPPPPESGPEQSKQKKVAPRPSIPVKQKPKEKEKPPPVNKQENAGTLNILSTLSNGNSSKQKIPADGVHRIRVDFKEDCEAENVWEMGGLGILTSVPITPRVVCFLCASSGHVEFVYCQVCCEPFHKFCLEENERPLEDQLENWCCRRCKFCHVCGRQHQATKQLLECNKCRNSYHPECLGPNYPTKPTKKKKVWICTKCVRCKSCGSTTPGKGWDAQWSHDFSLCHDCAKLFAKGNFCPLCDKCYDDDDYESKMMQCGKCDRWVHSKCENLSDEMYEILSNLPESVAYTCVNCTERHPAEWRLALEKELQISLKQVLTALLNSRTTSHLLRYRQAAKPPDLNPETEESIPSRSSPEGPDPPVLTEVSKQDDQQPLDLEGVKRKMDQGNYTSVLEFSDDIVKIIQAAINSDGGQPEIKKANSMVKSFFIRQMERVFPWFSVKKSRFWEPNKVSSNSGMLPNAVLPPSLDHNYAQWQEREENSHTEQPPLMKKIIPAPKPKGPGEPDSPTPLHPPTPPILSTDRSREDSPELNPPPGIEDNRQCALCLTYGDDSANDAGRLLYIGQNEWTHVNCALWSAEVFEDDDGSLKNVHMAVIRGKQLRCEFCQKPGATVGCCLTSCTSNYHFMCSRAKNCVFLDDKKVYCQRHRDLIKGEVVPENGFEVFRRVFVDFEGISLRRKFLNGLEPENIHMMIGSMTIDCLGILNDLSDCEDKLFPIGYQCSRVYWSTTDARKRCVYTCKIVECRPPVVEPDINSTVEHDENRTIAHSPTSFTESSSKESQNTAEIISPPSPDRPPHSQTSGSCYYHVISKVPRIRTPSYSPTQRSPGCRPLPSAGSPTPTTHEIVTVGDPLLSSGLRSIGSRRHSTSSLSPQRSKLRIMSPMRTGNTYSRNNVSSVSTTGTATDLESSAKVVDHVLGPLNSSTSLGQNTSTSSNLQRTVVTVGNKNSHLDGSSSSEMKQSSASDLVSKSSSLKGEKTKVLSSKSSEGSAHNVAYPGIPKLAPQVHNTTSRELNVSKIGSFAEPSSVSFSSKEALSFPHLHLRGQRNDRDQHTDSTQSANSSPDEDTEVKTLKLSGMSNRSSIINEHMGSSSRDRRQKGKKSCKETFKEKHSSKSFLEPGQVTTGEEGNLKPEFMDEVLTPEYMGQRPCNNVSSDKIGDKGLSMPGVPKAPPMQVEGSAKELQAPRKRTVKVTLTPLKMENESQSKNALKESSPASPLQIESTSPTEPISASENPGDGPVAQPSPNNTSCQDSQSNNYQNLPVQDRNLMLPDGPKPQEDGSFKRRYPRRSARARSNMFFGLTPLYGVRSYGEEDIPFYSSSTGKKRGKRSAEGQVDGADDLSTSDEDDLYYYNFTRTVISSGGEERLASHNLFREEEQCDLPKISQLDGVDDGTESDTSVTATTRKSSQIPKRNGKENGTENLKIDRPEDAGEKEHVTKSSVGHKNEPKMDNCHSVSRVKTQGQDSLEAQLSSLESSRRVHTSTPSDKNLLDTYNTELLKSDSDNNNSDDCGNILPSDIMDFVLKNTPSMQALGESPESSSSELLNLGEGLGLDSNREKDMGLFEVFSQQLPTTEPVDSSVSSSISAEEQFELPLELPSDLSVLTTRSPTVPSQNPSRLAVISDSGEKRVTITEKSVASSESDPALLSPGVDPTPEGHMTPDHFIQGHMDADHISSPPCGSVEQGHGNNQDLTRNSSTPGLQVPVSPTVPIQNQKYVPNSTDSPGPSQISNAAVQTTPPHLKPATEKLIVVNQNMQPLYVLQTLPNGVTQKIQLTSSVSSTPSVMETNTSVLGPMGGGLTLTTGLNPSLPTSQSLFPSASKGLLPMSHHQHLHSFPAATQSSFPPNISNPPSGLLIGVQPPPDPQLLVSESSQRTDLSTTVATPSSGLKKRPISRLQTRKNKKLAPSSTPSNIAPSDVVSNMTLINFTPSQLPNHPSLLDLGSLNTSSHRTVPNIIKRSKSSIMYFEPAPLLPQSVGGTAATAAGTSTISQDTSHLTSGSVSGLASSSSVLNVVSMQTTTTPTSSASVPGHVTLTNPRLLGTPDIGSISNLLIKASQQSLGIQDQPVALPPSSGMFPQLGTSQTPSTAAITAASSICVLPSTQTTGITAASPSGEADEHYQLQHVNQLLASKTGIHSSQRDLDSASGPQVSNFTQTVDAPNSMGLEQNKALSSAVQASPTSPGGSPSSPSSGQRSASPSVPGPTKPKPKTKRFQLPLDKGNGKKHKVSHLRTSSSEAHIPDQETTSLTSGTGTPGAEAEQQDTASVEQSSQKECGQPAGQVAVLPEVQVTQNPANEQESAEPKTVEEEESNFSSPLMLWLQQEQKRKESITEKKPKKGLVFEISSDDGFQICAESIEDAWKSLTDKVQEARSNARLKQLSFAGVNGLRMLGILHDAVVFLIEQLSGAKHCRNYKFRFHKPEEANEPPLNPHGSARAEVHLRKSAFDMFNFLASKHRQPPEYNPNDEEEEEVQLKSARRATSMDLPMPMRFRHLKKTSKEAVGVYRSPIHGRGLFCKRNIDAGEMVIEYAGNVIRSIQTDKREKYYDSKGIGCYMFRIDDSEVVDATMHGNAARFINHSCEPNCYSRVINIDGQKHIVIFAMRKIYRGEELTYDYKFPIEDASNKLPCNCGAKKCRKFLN

decrease in binding affinity for G331R [1]: approximately 3 fold
decrease in binding affinity for G331D [2]: ~10 fold
Molecule: C[C@H](NC(=O)[C@@H](N)CO)C(=O)N[C@@H](CCCNC(=N)N)C(=O)N[C@@H](Cc1c[nH]c2ccccc12)C(=O)N[C@@H](CCCNC(=N)N)C(=O)N[C@@H](Cc1ccccc1)C(=O)N1CCC[C@H]1C(=O)N[C@@H](C)C(=O)N[C@@H](CCCNC(=N)N)C(=O)N1CCC[C@H]1C(=O)NCC(=O)N[C@H](C(N)=O)[C@@H](C)O [MLL1^4-15]
weaker competition activity than MLL1^46 [3]: 3 orders of magnitude

Molecule: Menin (from UniProt O00255)
Kd [4]: 56 nM
Kd [5]: 1000 nM

Molecule: CNc1nc(NC2CCN(Cc3ccc4c(cc(C#N)n4C[C@H](C)N4CCN(S(C)(=O)=O)CC4)c3C)CC2)c2cc(CC(F)(F)F)sc2n1 [Ziftomenib]
complete remission [6, 9]: ~35%
overall response rate [6, 9]: ~45%
rate of complete remission ([6]; phase 1/2 first-in-human trials, MLL1-r and NPM1-mut acute leukemias): over 30%

Molecule: MBM2: menin binding motif 2, residues 24 to 40 of MLL1 (RRGLGGAPRQRVPALLL; UniProt Q03164 24-40, looked up, fragment)
Kd [7]: 1000 nM

decrease in binding affinity for G331R [1]: 3 fold
decrease in binding affinity for G331D [2]: 10 fold
Molecule: MBM1: menin binding motif 1, amino acid residues 6 to 13 of MLL1 (RWRFPARP; UniProt Q03164 6-13, looked up, fragment)

competition for the menin^G331D variant [8]: no significant competition
Molecule: SARWRFPARPGTTGGGGGGGRRGLG-NH2 (C-terminus assumed) [MLL1^4-28, reference compound]
